# Target: human p45MEK1 (GST-MEK) (Homo sapiens, UniProt Q02750)
# Test: Assay for inhibitors of the MAP kinase pathway (coupled GST-MEK / GST-MAPK / MBP 33P incorporation assay)
# Type: biochemical
# Details: GST-MEK activated by c-raf, 60min at room temperature with inhibitor, MBP substrate
# Procedure: To evaluate inhibitors of the MAPK pathway a coupled assay was carried out which measures phosphorylation of serine/threonine residues present in the substrate in the presence or absence of inhibitor. Recombinant glutathione S-transferase fusion protein containing human p45MEK1 (GST-MEK) was activated by c-raf (Sf9 insect cell lysate from triple baculoviral infection with c-raf/ras/lck) and used for the assay. Active GST-MEK was first used to activate a recombinant glutathione S-transferase fusion protein containing p44MAP kinase (GST-MAPK) in the presence of ATP and Mg^2+ for 60min at room temperature in the presence or absence of potential inhibitors. The activated GST-MAPK was then incubated with myelin basic protein (MBP) as substrate for 10min at room temperature in the presence of ATP, Mg^2+ and ^33P-ATP. The reaction was stopped by addition of 20% v/v phosphoric acid. Incorporation of ^33P into the myelin basic protein was determined by capture of the substrate on a filter mat, washing and counting using scintillation methods. The extent of inhibition was determined by comparison with untreated controls.
# The final assay solution contained 10mM Tris, pH 7.5, 0.05mM EGTA, 8.33µM [γ^33P]ATP, 8.33mM Mg(OAc)2, 0.5mM sodium orthovanadate, 0.05%w/v BSA, 6.5ng GST-MEK, 1µg GST-MAPK and 16.5µg MBP in a reaction volume of 60µl.
# Chain of human p45MEK1 (GST-MEK) (Q02750 whole entry): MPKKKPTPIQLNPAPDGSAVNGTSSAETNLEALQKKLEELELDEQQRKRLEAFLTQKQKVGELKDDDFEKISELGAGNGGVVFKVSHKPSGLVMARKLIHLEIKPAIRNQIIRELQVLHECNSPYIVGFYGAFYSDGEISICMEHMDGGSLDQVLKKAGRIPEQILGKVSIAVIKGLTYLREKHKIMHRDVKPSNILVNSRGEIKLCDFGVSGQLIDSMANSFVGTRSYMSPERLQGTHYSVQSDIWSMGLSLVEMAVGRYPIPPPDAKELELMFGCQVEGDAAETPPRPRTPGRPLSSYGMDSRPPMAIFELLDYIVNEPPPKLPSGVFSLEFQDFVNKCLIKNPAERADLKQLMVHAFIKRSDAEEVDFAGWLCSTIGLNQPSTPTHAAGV
structure (smiles),measurement,value
COc1cc2ncc(C#N)c(Nc3ccc(OCC4OCCO4)cc3)c2cc1OC [Compound No 252],IC50,0.15 µM

# Source: patent EP1178967B1, “QUINOLINE DERIVATIVES AS INHIBITORS OF MEK ENZYMES” (AstraZeneca AB, priority 1999, dated 2000)
